Results from PMC3928078, “Ponatinib efficiently kills imatinib-resistant chronic eosinophilic leukemia cells harboring gatekeeper mutant T674I FIP1L1-PDGFRα: roles of Mcl-1 and β-catenin” (Molecular Cancer, 2014).

Biological target: T1, FIP1L1-PDGFRα (Homo sapiens, UniProt P16234, T674I, form not given)
T1 construct: gene PDGFRA; with Pre-mRNA 3'-end-processing factor FIP1
Assay type: cell-based
Settings: 24 h, 1000 nM, positive control; gatekeeper mutant; stated gain (imatinib resistance)

T1 sequence (P16234 550-1089 T674I limits assumed, form open): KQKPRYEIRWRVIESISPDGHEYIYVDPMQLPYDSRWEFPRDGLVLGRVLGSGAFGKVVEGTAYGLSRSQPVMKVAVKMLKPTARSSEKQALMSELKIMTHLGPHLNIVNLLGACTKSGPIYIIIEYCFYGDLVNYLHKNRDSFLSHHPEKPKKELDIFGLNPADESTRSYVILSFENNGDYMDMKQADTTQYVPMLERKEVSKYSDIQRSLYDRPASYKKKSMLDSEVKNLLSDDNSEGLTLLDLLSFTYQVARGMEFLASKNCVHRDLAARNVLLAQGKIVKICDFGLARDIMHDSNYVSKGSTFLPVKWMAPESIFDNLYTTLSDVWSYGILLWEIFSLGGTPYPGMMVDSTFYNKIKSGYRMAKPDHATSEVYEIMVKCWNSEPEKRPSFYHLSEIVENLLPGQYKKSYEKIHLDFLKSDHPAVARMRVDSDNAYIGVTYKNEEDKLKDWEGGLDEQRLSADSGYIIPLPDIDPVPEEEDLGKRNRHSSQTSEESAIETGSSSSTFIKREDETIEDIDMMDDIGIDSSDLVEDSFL
T1 sequence (Q6UN15 whole entry partner, form open): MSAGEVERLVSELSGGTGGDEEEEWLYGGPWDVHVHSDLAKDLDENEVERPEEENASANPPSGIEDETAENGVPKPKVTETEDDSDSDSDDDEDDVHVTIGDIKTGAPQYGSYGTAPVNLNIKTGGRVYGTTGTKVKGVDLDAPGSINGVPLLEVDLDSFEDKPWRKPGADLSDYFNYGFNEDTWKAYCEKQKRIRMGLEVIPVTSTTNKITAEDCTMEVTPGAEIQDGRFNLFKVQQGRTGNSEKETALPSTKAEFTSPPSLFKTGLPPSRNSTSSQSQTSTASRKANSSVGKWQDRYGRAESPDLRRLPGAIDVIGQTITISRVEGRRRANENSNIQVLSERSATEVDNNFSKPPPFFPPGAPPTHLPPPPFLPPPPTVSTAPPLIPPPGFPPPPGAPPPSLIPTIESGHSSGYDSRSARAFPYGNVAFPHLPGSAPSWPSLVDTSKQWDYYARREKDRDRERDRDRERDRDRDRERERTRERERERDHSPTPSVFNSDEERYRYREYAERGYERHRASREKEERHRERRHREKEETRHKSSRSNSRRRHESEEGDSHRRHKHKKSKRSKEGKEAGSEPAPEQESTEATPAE

CNC(=O)c1cc(Oc2ccc(NC(=O)Nc3ccc(Cl)c(C(F)(F)F)c3)cc2)ccn1 [sorafenib]
immunoblot of phospho-PDGFRα (Y1018) in BaF3 cells: The phosphorylation of T674I FIP1L1-PDGFRα was altered by sorafenib but not imatinib
